Values of other authors in patent US8722101B2, “Use of iron(III) complex compounds” (Vifor (International) AG, priority 2005, dated 2014).

Settings: children with iron-related anaemia; administration for 75 days

Compound: O=S(=O)([O-])[O-].[Fe+2] [iron sulfate]
- improvement in the mental and psychomotor development: did not find any improvement
